From US20260306440A1, “USE OF SMALL MOLECULES TO INCREASE HYPOXIA INDUCIBLE FACTOR (HIF) ACTIVITY” (BROWN UNIVERSITY, priority 2023, published 2026)

Legend:
HIF-1α = experiment: Expression of HIF-1α protein in cancer cell lines treated with compound (FIGS. 1-4, 29, 30, 32); type: cell-based
Excerpt: (§1) Hypoxic conditions (0.5% O2) were achieved by culturing cells in a hypoxia chamber (HypOxygen H35 HypOxystation) which controls and maintains a stable level of oxygen, carbon dioxide, temperature and humidity.
(§2) Normoxia refers to a regular cell culture condition at 21% oxygen concentration.

VEGF [1] = experiment: Expression of VEGF protein in SW480 cells treated with compound (FIG. 4); type: cell-based; settings: normoxia 6 h (FIG. 4)
Excerpt: as §2

VEGF [2] = experiment: Luciferase reporter assay, VEGF-HRE::dLUC (HCT116 or SW480 stable cell lines); type: cell-based, human
Description: (§3) HCT116 or SW480 cells were transfected using lipofectamine 2000 (Invitrogen, USA) with pGL4.22-VEGF-HRE::dLUC or pGL4.22-PGK1-HRE::dLUC plasmids expressing the luciferase reporter with hypoxia response element (HRE) derived from the human PGK1 promoter or the human VEGF promoter (Walton Z. E. et al., Cell. 2018 Jun. 28; 174(1):72-87). Cells were cultured and selected in 2 μg/mL (for HCT116) or 4 μg/mL (for SW480) puromycin-containing DMEM medium (Cytiva HyClone) after 24 h of transfection. Individual clones were picked and expanded. Verification of the luciferase reporter-bearing cells were performed by measuring the bioluminescence in hypoxia upon addition of the substrate (luciferin) using the IVIS imaging system.
(§4) Luciferase-reporter expressing cells were seeded in 96-well black plates at a density of 2~4×10^4 cells/well. Treatment with compounds were performed on the next day for 6 h under normoxia or hypoxia. After substrate (luciferin) addition, plates were imaged for luminescence intensity in the IVIS imaging system.
as §1, §2

PGK1 = experiment: Luciferase reporter assay, PGK1-HRE::dLUC (HCT116 or SW480 stable cell lines); type: cell-based, human; settings: HCT116 and SW480, normoxia and hypoxia, 6 h (FIGS. 5-24)
Description: as §3, §4, §1, §2

[3] = test system: erythropoietin (EPO) mRNA; experiment: EPO mRNA expression in HCT116 cells by real-time PCR; type: cell-based; settings: HCT116, normoxia or hypoxia, indicated durations (FIG. 31)
Description: Total RNA was extracted from cells using the RNeasy Mini Kit (Qiagen). cDNA was obtained by reverse transcription with random primers using the SuperScript II First-Strand Synthesis System (Invitrogen). Real-time PCR reactions were performed with SYBR Green Master Mix (Applied Biosystems) using the QuantStudio™ 6 Pro Real-Time PCR System.
as §1, §2
Cells were treated for indicated durations in normoxia or hypoxia. Extracted RNA was analyzed by real-time PCR. M: MG132 (5 μM). Statistic analysis: two-way anova+Dunnett's multiple comparisons test.

[4] = hypoxia (0.5% O2), FIG. 2: SW480 cells, 6 h
[5] = normoxia (21% O2), FIGS. 1, 3, 4: SW480, RCC4 cells, 6 h

| Compound | HIF-1α expression (HIF-1α; HCT116, normoxia, 6, 8 or 10 hours (FIG. 29)) | expression of HIF-1α (HIF-1α; HT29 (colorectal cancer) cells, normoxia 6 h (FIG. 30)) | expression of HIF-1α (HIF-1α; PANC1 (pancreatic cancer) cells, normoxia 6 h (FIG. 30)) | expression of HIF-1α (HIF-1α; [4]) | expression of HIF-1α (HIF-1α; [5]) | VEGF expression (VEGF [1]) | VEGF upregulation as measured by a luciferase assay, despite incubation with siRNA EIF4E (VEGF [2]; HCT116, hypoxia 6 h, two different eIF4E siRNAs for 48 hours (FIG. 26)) | VEGF upregulation as measured by a luciferase assay, despite incubation with siRNA EIF4E (VEGF [2]; HCT116, normoxia 6 h, two different eIF4E siRNAs for 48 hours (FIG. 25)) | expression of VEGF as measured in a luciferase assay (VEGF [2]; HCT116 and SW480, normoxia and hypoxia, 6 h (FIGS. 5-24)) | VEGF upregulation as measured by a luciferase assay, despite incubation with siRNA EIF4E (VEGF [2]; SW480, hypoxia 6 h, two different eIF4E siRNAs for 48 hours (FIG. 28)) | VEGF upregulation as measured by a luciferase assay, despite incubation with siRNA EIF4E (VEGF [2]; SW480, normoxia 6 h, two different eIF4E siRNAs for 48 hours (FIG. 27)) | expression of PGK1 as measured in a luciferase assay (PGK1) | erythropoietin (EPO) mRNA expression [3] | HIF-1α expression (HIF-1α; HCT116, hypoxia (FIG. 32)) | HIF-1α expression (HIF-1α; RCC4 renal cell carcinoma cells, normoxia (FIG. 32)) | HIF-1α expression (HIF-1α; SW480, hypoxia (FIG. 32)) | HIF-1α expression (HIF-1α; SW480, normoxia (FIG. 32)) |
| --- | --- | --- | --- | --- | --- | --- | --- | --- | --- | --- | --- | --- | --- | --- | --- | --- | --- |
| O=C(O)c1ccc(N2C(=O)C(=Cc3ccc(-c4ccc([N+](=O)[O-])cc4)o3)C=C2c2ccccc2)cc1 [4E1Rcat] | increases | increases | increases | increase | increase | increase | upregulated | upregulated | increases | upregulated | upregulated | increases | increases | – | – | – | – |
| CC1=NN(c2ccc(C(=O)O)cc2)C(=O)/C1=C/c1ccc(-c2cc(C)c(C)cc2[N+](=O)[O-])o1 [C 646] | – | – | – | increase | increase | increase | – | – | – | – | – | – | – | – | – | – | – |
| CCc1ccc(/C=C/C(=O)Nc2ccc(C(C)=O)cc2)o1 [Heclin] | – | – | – | increase | increase | increase | – | – | – | – | – | – | – | – | – | – | – |
| CCOC(=O)c1ccc(N2NC(=O)/C(=C/c3ccc([N+](=O)[O-])o3)C2=O)cc1 [PYR 41] | – | – | – | increase | increase | increase | – | – | – | – | – | – | – | increases | increases | increases | increases |
